In general, MIC refers to the smallest concentration in the dilution series that meets the test's criterion for growth inhibition. Low values mean inhibition by little substance, high ones a need for much substance.

The test system of test [1] is Mycobacterium tuberculosis. Nature of the test: Autofluorescence-based susceptibility testing of positive sputum samples. Type of test: cell-based.
Another test has as its system Pseudomonas aeruginosa. Particulars: concentration added to sensitive and resistant strain wells; imaged at 0th and 4th hour; cited from earlier work.

In turn, `NC[C@H]1O[C@H](O[C@H]2[C@H](O)[C@@H](O[C@H]3O[C@H](CO)[C@@H](O)[C@H](N)[C@H]3O)[C@H](N)C[C@@H]2N)[C@H](O)[C@@H](O)[C@@H]1O` [kanamycin] returned a minimum inhibitory concentration (MIC) in test [1] of over 3 µg/mL.

As for `C[C@@H](O)[C@H]1C(=O)N2C(C(=O)O)=C(S[C@@H]3CN[C@H](C(=O)N(C)C)C3)[C@H](C)[C@H]12` [meropenem], the “Minimum Inhibitory Concentration (MIC) Value” in the test on Pseudomonas aeruginosa is 4 µg/mL.

Source of the values: patent US12644840B2, “Pathogenic susceptibility assessment based on autofluoresence” (Adiuvo D[…] Limited, priority 2021, dated 2026).
